Reference: patent US20130236619A1, “ANTI-MICROBIAL FOOD PROCESSING COMPOSITIONS INCLUDING CERAGENIN COMPOUNDS AND METHODS OF USE” (Brigham Young University, priority 2012, published 2013)

Experiments:
[1] = system: Salmonella bacteria; assay: Example 2: Salmonella inoculated poultry carcasses dipped in wash composition; conditions: peracetic acid wash composition
Procedure: (§1) Example 2 was performed to determine the effectiveness of an anti-microbial wash composition including a ceragenin compound in controlling growth of Salmonella bacteria by fighting off a Salmonella inoculation. Example 3 was similarly performed to determine the effectiveness of the wash composition in controlling growth of Campylobacter bacteria by fighting off a Campylobacter inoculation. Examples 2 and 3 simulate the effectiveness of the present anti-microbial wash compositions to kill Salmonella and Campylobacter on a poultry carcass where the poultry carcass has become contaminated with Salmonella bacteria or Campylobacter bacteria.
(§2) A total of 15 poultry carcasses (chicken carcasses) were sampled for these tests. The 15 poultry carcasses were divided into five groups of three each. Three carcasses were left untreated to serve as a negative control in order to observe natural levels of bacteria present on the carcass. The remaining 12 carcasses were then inoculated with 1 mL of Salmonella and 1 mL of Campylobacter. The carcasses were allowed to dry for 20 minutes in order for the bacteria to adhere to the surface of the poultry carcasses. One group of three of the inoculated poultry carcasses, designated the positive control, were then rinsed with a wash composition including no anti-microbial agent to determine the level of bacteria after inoculation. […]

[2] = system: Campylobacter bacteria; assay: Example 3: Campylobacter inoculated poultry carcasses dipped in wash composition; conditions: peracetic acid wash composition
Procedure: as §1, §2

[3] = system: spoilage microorganisms; assay: Example 1: shelf-life of poultry carcasses dipped in wash composition; conditions: wash composition including 100 ppm peracetic acid
Procedure: A study was performed to determine the effectiveness of an anti-microbial rinse composition including relatively low concentrations of a ceragenin compound in controlling growth of bacteria and extending shelf-life of a poultry food product. Three different wash compositions were prepared. Aqueous wash composition 1 (the control) included no ceragenin compound or other anti-microbial agent. Aqueous wash composition 1 was simply tap water. […] The ceragenin compound employed was CSA-44. Poultry carcasses (chicken carcasses) were dipped (e.g., immersed) for 30 seconds into the given wash composition and mechanically agitated to mimic the action of a finishing chiller used in commercial processing. After the 30 second application time, the carcasses were immediately vacuum packaged and stored in a refrigerator at 4° C. Three carcasses from each treatment were tested every third day beginning at day 0 and ending at day 21 to monitor their associated levels of microorganisms.
Poultry is considered to be spoiled when it reaches a level of 10^6 Colony Forming Units (“CFUs”)/ml of spoilage microorganisms in the rinsate. The control, i.e., poultry carcasses treated with wash composition 1, reached this limit on day 12. […] By day 18, the poultry carcasses treated with wash composition 2 had exceeded this limit with a value of about 10^6.5 CFUs/ml. […]

## CC(=O)OO [peracetic acid]
[1]
  reduction of the presence of Salmonella bacteria: effective in reducing
[2]
  reduction of the presence of Campylobacter bacteria: effective in reducing
[3]
  extension of shelf-life relative to a control wash composition: no extension of shelf-life
